According to publication PMC12133982, “Predominant T-cell epitopes of SARS-CoV-2 restricted by multiple prevalent HLA-B and HLA-C allotypes in Northeast Asia” (Frontiers in Immunology, 2025):
Values joined by “and” are separate entries in the source; they are usually repeats but may differ in a detail not shown here. Equal entries are not always repeated. Peptide text beside a SMILES is read from it.

Legend:
[1] = target: HLA-B5101 (Homo sapiens, UniProt P01889, A329T/A93T/A95T/C349S/D138N/D201E/D98Y/E187L/E204Q/E69T/G107R/I218V/K202T/L105A/L119W/N104I/Q94N/R106L/R155S/R180L/S101N/S121T/S35A/S48A/V306I/V36M/Y195H/Y91F); assay: Competitive peptide binding assay, CIR-B5101; conditions: HMy2.CIR-B5101 cells, reference Cy5-[…], class from inhibition at 5 and 15 μM, flow cytometry MFI; read-out: Binding affinity with HLA-B5101
Description: (§1) Then, competitive peptide binding assays were performed.

[2] = target: HLA-B1501 (Homo sapiens, UniProt P01889, A329T/A93T/A95T/C349S/D201E/D98Y/E187L/E204Q/E69M/E70A/K202T/N87E/Q94N/R155S/R180W/S121R/S35A/S48A/V306I/V36M/Y140S/Y91S); assay: Competitive peptide binding assay, CIR-B1501; conditions: HMy2.CIR-B1501 cells, reference Cy5-[…], class from inhibition at 5 and 15 μM, flow cytometry MFI; read-out: Binding affinity with HLA-B1501
Description: as §1

[3] = target: HLA-B3501 (Homo sapiens, UniProt P01889, A329T/A93T/A95T/C349S/D201E/D98Y/E176V/E187L/E204Q/E69T/I218V/K202T/L119I/Q94N/R155S/R180L/S121R/S35A/S48A/T118I/V127L/V306I/V36M/Y140S/Y91F); assay: Competitive peptide binding assay, CIR-B3501; conditions: HMy2.CIR-B3501 cells, reference Cy5-[…], class from inhibition at 5 and 15 μM, flow cytometry MFI; read-out: Binding affinity with HLA-B3501
Description: as §1

[4] = target: HLA-B5801 (Homo sapiens, UniProt P01889, A329T/C349S/D201E/D98Y/E176V/E187L/E204Q/E69T/G107R/I218V/I90N/K202T/L105A/L119I/N104I/N87E/Q89R/Q94S/R106L/R155S/R180L/R86G/S101N/S121R/S35A/S48A/T118I/V127L/V306I/V36M/Y140S/Y91M); assay: Competitive peptide binding assay, CIR-B5801; conditions: HMy2.CIR-B5801 cells, reference Cy5-[…], class from inhibition at 5 and 15 μM, flow cytometry MFI; read-out: Binding affinity with HLA-B5801
Description: as §1

[5] = target: HLA-B4601 (Homo sapiens, UniProt P01889, A329T/A93R/C349S/D201E/E100V/E187L/E204Q/E69M/E70A/I90K/K202T/N87E/R155S/R180W/S121R/S35A/S48A/V306I/V36M/Y140S); assay: Competitive peptide binding assay, CIR-B4601; conditions: for IC50: HMy2.CIR-B4601 cells, reference Cy5-[…], class from inhibition at 5 and 15 μM, flow cytometry MFI, read-out: Binding affinity with HLA-B4601; for inhibition at 5 µM: read-out: Inhibition % of Cy5-reference peptide binding, CIR-B4601, 5μM peptide; for inhibition at 15 µM: read-out: Inhibition % of Cy5-reference peptide binding, CIR-B4601, 15μM peptide
Description: as §1

[6] = target: HLA-B4403 (Homo sapiens, UniProt P01889, A223V/A65T/A93T/A95T/D201E/D98Y/E176V/E187L/E204Q/E69K/G107R/H137Y/K202T/L105A/L119I/N104T/N87E/Q56L/Q94N/R106L/R155S/R180L/S101N/S121R/S35A/S48T/T118I/V36M/W191S/Y140D/Y91S); assay: Competitive peptide binding assay, CIR-B4403; conditions: HMy2.CIR-B4403 cells, reference Cy5-CYMEAVAL, class from inhibition at 5 and 15 μM, flow cytometry MFI; read-out: Binding affinity with HLA-B4403
Description: as §1

[7] = target: HLA-B1502 (Homo sapiens, UniProt P01889, A329T/A93T/A95T/C349S/D201E/D98Y/E187L/E204Q/E69M/E70A/H137Y/K202T/L119I/Q94N/R155S/R180L/S121R/S35A/S48A/T118I/V306I/V36M/Y140S/Y91S); assay: Competitive peptide binding assay, CIR-B1502; conditions: HMy2.CIR-B1502 cells, reference Cy5-[…], class from inhibition at 5 and 15 μM, flow cytometry MFI; read-out: Binding affinity with HLA-B1502
Description: as §1

[8] = target: HLA-B4001 (Homo sapiens, UniProt P01889, A65T/A93T/A95T/D138N/D98Y/E176V/E69K/N87E/Q56L/Q94N/R180L/S121R/S35A/S48T/T167S/V36M/W171L/Y33H/Y91S); assay: Competitive peptide binding assay, CIR-B4001; conditions: HMy2.CIR-B4001 cells, reference Cy5-[…], class from inhibition at 5 and 15 μM, flow cytometry MFI; read-out: Binding affinity with HLA-B4001
Description: as §1

[9] = target: HLA-B1302 (Homo sapiens, UniProt P01889, A65T/A93T/A95T/D138N/D201E/D98Y/E176V/E204Q/E69M/E70A/G107R/K202T/L105A/L119W/N104T/N87E/Q94N/R106L/R155S/R169L/R180L/S101N/S121T/S35A/S48T/V127L/V36M/Y140L/Y91S); assay: Competitive peptide binding assay, CIR-B1302; conditions: HMy2.CIR-B1302 cells, reference Cy5-MMWYWGPSL, class from inhibition at 5 and 15 μM, flow cytometry MFI; read-out: Binding affinity with HLA-B1302
Description: as §1

[10] = target: HLA-B1301 (Homo sapiens, UniProt P01889, A65T/A93T/A95T/D138N/D201E/D98Y/E176V/E204Q/E69M/E70A/G107R/K202T/L105A/L119I/N104T/N87E/Q94N/R106L/R155S/R169L/R180L/S101N/S121R/S35A/S48T/T118I/V127L/V36M/Y140L/Y91S); assay: Competitive peptide binding assay, CIR-B1301; conditions: HMy2.CIR-B1301 cells, reference Cy5-[…], class from inhibition at 5 and 15 μM, flow cytometry MFI; read-out: Binding affinity with HLA-B1301
Description: as §1

[11] = target: T1, HLA-B0702 (Homo sapiens, UniProt P01889); assay: Competitive peptide binding assay, CIR-B0702; conditions: HMy2.CIR-B0702 cells, reference Cy5-[…], class from inhibition at 5 and 15 μM, flow cytometry MFI
T1 construct: expressed in transfected cells; host or cells: HMy2.CIR
Description: as §1

SMILES | IC50 [1] [µM] | IC50 [2] [µM] | IC50 [3] [µM] | IC50 [4] [µM] | IC50 [5] [µM] | IC50 [6] [µM] | IC50 [7] [µM] | IC50 [8] [µM] | IC50 [9] | IC50 [10] [µM] | inhibition at 5 µM [5] [%] | inhibition at 15 µM [5] [%] | IC50 [11] [µM]
CC(C)C[C@H](NC(=O)[C@H](CCC(N)=O)NC(=O)[C@@H](NC(=O)[C@H](CS)NC(=O)[C@H](Cc1ccccc1)NC(=O)[C@H](CO)NC(=O)CNC(=O)[C@H](Cc1ccc(O)cc1)NC(=O)[C@H](CCC(N)=O)NC(=O)[C@@H](N)CC(C)C)[C@@H](C)O)C(=O)O [Epitope Y88] (H-LQYGSFCTQL-OH; N-terminus and C-terminus assumed) | > 15 | > 15 | 5 to 15 | > 15 |  |  |  |  |  |  |  |  | 
CC[C@H](C)[C@H](NC(=O)[C@H](Cc1ccc(O)cc1)NC(=O)[C@H](CCC(N)=O)NC(=O)[C@H](CCC(=O)O)NC(=O)[C@@H](N)Cc1ccc(O)cc1)C(=O)N[C@@H](CCCCN)C(=O)N[C@@H](Cc1c[nH]c2ccccc12)C(=O)N1CCC[C@H]1C(=O)N[C@@H](Cc1c[nH]c2ccccc12)C(=O)O [Epitope Y230] (H-YEQYIKWPW-OH; N-terminus and C-terminus assumed) |  | > 15 | > 15 | 5 to 15 | > 15 | < 5 | > 15 | > 15 |  |  |  |  | 
CC[C@H](C)[C@H](NC(=O)[C@H](CC(C)C)NC(=O)[C@H](CS)NC(=O)CNC(=O)[C@H](C)NC(=O)[C@H](CCCNC(=N)N)NC(=O)[C@@H](NC(=O)[C@H](CCC(N)=O)NC(=O)[C@@H](N)Cc1ccccc1)[C@@H](C)O)C(=O)O [Epitope Y89] (H-FQTRAGCLI-OH; N-terminus and C-terminus assumed) |  | > 15 | > 15 | > 15 | > 15 | > 15 |  | 5 to 15 | < 5 µM and > 15 µM |  |  |  | 
CC[C@H](C)[C@H](NC(=O)[C@@H](NC(=O)[C@H](CC(N)=O)NC(=O)[C@H](CCCNC(=N)N)NC(=O)[C@H](CCCCN)NC(=O)[C@@H](NC(=O)[C@H](Cc1ccc(O)cc1)NC(=O)[C@H](C)NC(=O)[C@@H](N)Cc1ccccc1)[C@@H](C)O)C(C)C)C(=O)O [Epitope Y276] (H-FAYTKRNVI-OH; N-terminus and C-terminus assumed) | 5 to 15 | > 15 | > 15 |  |  |  | > 15 |  |  | < 5 |  |  | 
CC[C@H](C)[C@H](NC(=O)[C@H](C)NC(=O)[C@H](C)NC(=O)[C@H](CC(N)=O)NC(=O)[C@H](CC(N)=O)NC(=O)[C@H](C)NC(=O)[C@@H]1CCCN1C(=O)[C@@H](N)CC(N)=O)C(=O)N[C@H](C(=O)O)C(C)C [Epitope Y18] (H-NPANNAAIV-OH; N-terminus and C-terminus assumed) |  | 5 to 15 |  |  | > 15 | > 15 |  | > 15 |  |  | 12.5 | 42.5 | 
CC(C)[C@H](NC(=O)[C@@H](NC(=O)[C@@H](N)Cc1ccccc1)C(C)C)C(=O)N[C@@H](CO)C(=O)N[C@H](C(=O)NCC(=O)N[C@@H](Cc1ccc(O)cc1)C(=O)N[C@@H](Cc1c[nH]cn1)C(=O)N[C@@H](Cc1ccccc1)C(=O)O)[C@@H](C)O [Epitope Y167] (H-FVVSTGYHF-OH; N-terminus and C-terminus assumed) |  | > 15 | 5 to 15 | > 15 | 5 to 15 | > 15 | 5 to 15 |  |  | > 15 |  |  | > 15
CC(C)C[C@H](NC(=O)[C@@H](NC(=O)[C@@H](NC(=O)CNC(=O)[C@H](CCC(N)=O)NC(=O)[C@@H]1CCCN1C(=O)[C@H](CC(C)C)NC(=O)[C@H](CCC(N)=O)NC(=O)[C@@H](N)CC(C)C)[C@@H](C)O)[C@@H](C)O)C(=O)O [Epitope Y61] (H-LQLPQGTTL-OH; N-terminus and C-terminus assumed) | 5 to 15 |  | < 5 | 5 to 15 | > 15 |  |  |  |  |  | 20 | 33.6 | 
CSCC[C@H](NC(=O)[C@H](CCSC)NC(=O)[C@H](CO)NC(=O)[C@H](Cc1ccccc1)NC(=O)[C@H](Cc1c[nH]cn1)NC(=O)[C@H](CCCCN)NC(=O)[C@H](CCCNC(=N)N)NC(=O)[C@H](CC(C)C)NC(=O)[C@@H](N)Cc1ccc(O)cc1)C(=O)O [Epitope Y28] (H-YLRKHFSMM-OH; N-terminus and C-terminus assumed) | > 15 | < 5 | 5 to 15 | > 15 | < 5 |  | > 15 |  |  | > 15 | 85.7 | 91.8 | 
CC[C@H](C)[C@H](NC(=O)[C@@H]1CCCN1C(=O)[C@@H]1CCCN1C(=O)[C@@H](NC(=O)[C@H](CCCCN)NC(=O)[C@H](Cc1ccc(O)cc1)NC(=O)[C@@H](NC(=O)[C@H](CCC(N)=O)NC(=O)[C@@H](N)CCCCN)[C@@H](C)CC)[C@@H](C)O)C(=O)O [Epitope Y82] (H-KQIYKTPPI-OH; N-terminus and C-terminus assumed) | > 15 | > 15 | < 5 | 5 to 15 |  |  | > 15 |  |  |  |  |  | 
CC(C)[C@H](NC(=O)[C@H](CC(N)=O)NC(=O)[C@H](Cc1ccc(O)cc1)NC(=O)[C@H](C)NC(=O)[C@@H](N)CCCCN)C(=O)N[C@H](C(=O)N[C@@H](CCC(N)=O)C(=O)N[C@@H](C)C(=O)N[C@@H](Cc1ccccc1)C(=O)O)[C@@H](C)O [Epitope Y62] (H-KAYNVTQAF-OH) |  | 5 to 15 | < 5 | 5 to 15 | 5 to 15 | 5 to 15 |  | > 15 | > 15 µM |  |  |  | > 15
